Test results taken from patent US8633318B2, “Compounds for treatment or prevention of inflammation, an inflammatory disease, or an immune or an autoimmune disorder” (Proximagen Ltd, priority 2008, dated 2014).

Target: T1, human SSAO (Homo sapiens, UniProt Q16853)
T1 construct: made in house
T1 sequence (Q16853 29-763 limits assumed): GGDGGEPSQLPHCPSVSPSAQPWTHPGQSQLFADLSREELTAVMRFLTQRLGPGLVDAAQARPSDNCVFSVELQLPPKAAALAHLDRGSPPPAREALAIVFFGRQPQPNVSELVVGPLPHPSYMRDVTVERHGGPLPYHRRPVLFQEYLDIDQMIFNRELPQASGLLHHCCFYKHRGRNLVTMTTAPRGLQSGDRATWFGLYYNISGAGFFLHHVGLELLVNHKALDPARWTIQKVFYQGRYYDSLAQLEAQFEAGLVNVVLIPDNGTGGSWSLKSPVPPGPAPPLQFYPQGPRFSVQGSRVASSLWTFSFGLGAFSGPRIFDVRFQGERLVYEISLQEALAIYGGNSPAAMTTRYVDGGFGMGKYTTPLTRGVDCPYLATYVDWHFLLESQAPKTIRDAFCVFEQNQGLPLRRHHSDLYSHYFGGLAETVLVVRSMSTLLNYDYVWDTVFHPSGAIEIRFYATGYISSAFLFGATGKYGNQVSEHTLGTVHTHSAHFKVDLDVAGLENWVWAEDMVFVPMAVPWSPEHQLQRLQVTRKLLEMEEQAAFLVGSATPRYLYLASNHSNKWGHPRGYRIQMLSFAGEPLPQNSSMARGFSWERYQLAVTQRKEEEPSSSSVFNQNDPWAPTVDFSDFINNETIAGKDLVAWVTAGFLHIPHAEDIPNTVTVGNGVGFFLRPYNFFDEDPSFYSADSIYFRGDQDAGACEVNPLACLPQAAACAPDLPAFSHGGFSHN
Experiment: SSAO enzyme inhibition assay (Amplex Red/HRP coupled, benzylamine substrate)
Format: biochemical
Conditions: purified recombinantly expressed human SSAO; benzylamine 100 μM; about 60 minutes pre-incubation; room temperature
Method: Biological Assay of the SSAO Enzyme Inhibitors
All assays were performed in room temperature with purified recombinantly expressed human SSAO. Enzyme was prepared essentially as described in Öhman et al. (Protein Expression and Purification 2006, 46, 321-331). The enzyme activity was measured with benzylamine as substrate and utilized the production of hydrogen peroxide for detection. In a horseradish peroxidise (HRP) coupled reaction, hydrogen peroxide oxidation of 10-acetyl-3,7-dihydroxyphenoxazine produced resorufin, which is a highly fluorescent compound (Zhout and Panchuk-Voloshina. Analytical Biochemistry 1997, 253, 169-174; Amplex® Red Hydrogen Peroxide/peroxidise Assay kit, Invitrogen A22188).
Briefly, test compounds were dissolved in dimethyl sulfoxide (DMSO) to a concentration of 10 mM. Dose-response measurements were assayed by either creating 1:10 serial dilutions in DMSO to produce a 7 point curve or by making 1:3 serial dilutions in DMSO to produce 11 point curves. […] Fluorescence intensity was then measured at several time points (15 minutes, 20 minutes and 30 minutes) exciting at 544 nm and reading the emission at 590 nm). […] The inhibition was measured as % decrease of the signal compared to a control without inhibitor (only diluted DMSO). […] Data was fitted to a four parameter logistic model and IC50 values were calculated using the GraphPad Prism 4 or XLfit 4 programs.

IC50 | SMILES
89 nM | Cc1ccc(-c2nn(C3CCOCC3)c3ccncc23)cc1 [Example 3, 3-(4-Methylphenyl)-1-(tetrahydro-2H-pyran-4-yl)-1H-pyrazolo[4,3-c]pyridine]
120 nM | Clc1ccc(-c2nn(C3CCNCC3)c3ccncc23)cc1 [Example 5, 3-(4-Chlorophenyl)-1-piperidin-4-yl-1H-pyrazolo[4,3-c]pyridine]
